{"source": "paper PMC5355811", "about": "(Nature Communications, 2017)", "key": {"[1]": {"test_system": "Ba/F3 cells of EGFR-T790M/del19", "assay": "Drug sensitivity screening at 100 nM, Ba/F3 EGFR-T790M/del19", "format": "cell-based", "details": "Mus musculus, BaF3, 72 h, 100 nM inhibitor, 72 h, DMSO = 100; mean of three independent experiments (Fig. 1a data); read-out: Relative cell viability (ratio to DMSO control), del19/T790M", "protocol": "(§1) After the incubation, cell viability was measured using CellTiter-Glo assay. The relative cell viability was calculated as a ratio of each value to that of the DMSO control."}, "PC9 parent cells (del19)": {"test_system": "PC9 parent cells (del19)", "assay": "CellTiter-Glo cell viability assay, PC9 parent", "format": "cell-based", "details": "read-out: IC50, PC9 parent", "protocol": "(§2) Three-day cell viability assays were carried out by plating 2,000, 1,500 and 2,000 cells per well of Ba/F3, PC9 or MGH121, respectively, into black transparent-bottom 96-well plates. On the same day for Ba/F3 cells and the following day for PC9 and MGH121 cells, the cells were treated with each TKI across a 10-dose range from 0.3 nmol l^−1 to 10 μmol l^−1. After 72 h of drug treatment, cell viability was measured using the CellTiter-Glo assay (Promega)."}, "[2]": {"test_system": "A431, A549 and H460 cells", "assay": "CellTiter-Glo cell viability assay, non-EGFR-mutated cell lines", "format": "cell-based", "details": "A431 (EGFR amplification), A549 and H460 (KRAS mutation); 72 h"}, "[3]": {"test_system": "Ba/F3 cells expressing EGFR-L858R", "assay": "CellTiter-Glo cell viability assay, Ba/F3 EGFR-L858R", "format": "cell-based", "details": "read-out: IC50, Ba/F3 L858R", "protocol": "as §2"}, "[4]": {"test_system": "EGFR phosphorylation in PC9 triple-mutant cells", "assay": "Western blotting of EGFR signalling, PC9 triple mutant", "format": "cell-based", "protocol": "(§3) Tumour tissues or cells grown under the specified conditions were washed with cold PBS before addition of the SDS lysis buffer (100 mM Tris, 1% SDS, 10% glycerol). Lysates were transferred to microtubes, boiled for 5 min at 100 °C and then vortexed. Protein quantification was performed using the BCA Protein Assay Reagent (Pierce) according to the manufacturer's protocol. Western blot analyses were conducted after separation by SDS-PAGE and transferred to polyvinylidene difluoride membranes."}, "[5]": {"test_system": "MGH121-res2 (C797S/T790M/del19) xenograft", "assay": "MGH121-res2 xenograft", "format": "in vivo", "details": "brigatinib 75 mg kg^−1 po; cetuximab 1 mg per mouse two times a week", "protocol": "(a,b) MGH121-res2 expressing EGFR-C797S/T790M/del19 were subcutaneously implanted into SCID-beige mice. […] Tumour volume (V) was calculated as 0.5 × length × width^2, and the body weights (B.W.) of the mice were measured twice weekly. N=6. Results are expressed as mean±s.d."}, "[6]": {"details": "180 mg per day, cited from earlier work"}, "[7]": {"test_system": "phosphorylation of EGFR in Ba/F3 cells expressing EGFR-C797S/T790M/del19", "assay": "Western blotting of EGFR signalling, Ba/F3 triple-del19", "format": "cell-based", "details": "6 h", "protocol": "as §3"}, "EGFR-C797S/T790M/L858R": {"target": "EGFR-C797S/T790M/L858R (Homo sapiens, UniProt P00533, C797S/L858R/T790M)", "sequence (P00533 712-979 T790M/C797S/L858R)": "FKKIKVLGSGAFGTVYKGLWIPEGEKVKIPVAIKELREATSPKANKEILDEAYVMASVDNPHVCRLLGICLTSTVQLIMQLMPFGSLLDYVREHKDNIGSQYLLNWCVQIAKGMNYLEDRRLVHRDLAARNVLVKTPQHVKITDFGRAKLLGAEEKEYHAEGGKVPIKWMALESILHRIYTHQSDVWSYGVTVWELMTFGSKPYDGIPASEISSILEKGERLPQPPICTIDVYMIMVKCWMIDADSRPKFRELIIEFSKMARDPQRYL", "details": "inhibition curves shifted with ATP concentration, triple-mutant and wild-type EGFR", "experimental": "The appropriate amount of target proteins calculated on the basis of the ADP-Glo assay manufacturer's protocol was incubated in 96-well half area white plates with serially diluted inhibitor over a 10-dose range from 0.0002, nM to 10 μM for 10 min at room temperature. ATP at concentration of 1, 10, 100 and 1,000 nM was mixed with 100 μg ml^−1 substrate and added to a kinase protein–inhibitor mixture, and then incubated for 60 min at room temperature. After the kinase reaction, an equal volume of ADP-Glo Reagent was added to terminate the kinase reaction, and the remaining ATP was depleted. The Kinase Detection Reagent was added both to convert ADP to ATP and to allow the newly synthesized ATP to be measured using the luciferase/luciferin reaction. The light generated was measured using a luminometer."}, "[8]": {"test_system": "Ba/F3 cells expressing EGFR-del19", "assay": "CellTiter-Glo cell viability assay, Ba/F3 EGFR-del19", "format": "cell-based", "details": "Mus musculus", "protocol": "as §2"}, "[9]": {"test_system": "cell surface EGFR in PC9 triple-mutant cells", "assay": "Flow cytometry of cell surface EGFR", "format": "cell-based", "details": "0, 6, 24 and 48 h"}, "[10]": {"test_system": "PC9-triple mutant (C797S/T790M/del19) xenograft", "experimental": "(§4) Tumour growth was monitored twice weekly by bilateral caliper measurement, and tumour volume was calculated as 0.5 × length × width × width (mm^3). […] The mice whose implanted tumour size was ranked in the top 5% and bottom 5% were excluded from randomization to minimize the variation of tumour sizes. The mice were treated once daily by oral gavage for the indicated period. Relative tumour volume was calculated by dividing by the tumour volume on day 0. The body weights of the mice were measured twice weekly. Implanted tumours were resected from the mice on day 15 of drug treatment and were fixed with formalin. The mice were euthanized when the tumour size exceeded 700 mm^3 within several days. The investigators performing tumour measurements were not blinded to treatment groups. The sample size (minimum n=6 per treatment group) was selected to ensure satisfactory inter-animal reproducibility. The Mann–Whitney U test was used for the statistical analysis of the mice experiments."}, "[11]": {"test_system": "Ba/F3 cells of EGFR-C797S/T790M/del19", "assay": "Drug sensitivity screening at 100 nM, Ba/F3 EGFR-C797S/T790M/del19", "format": "cell-based", "details": "Mus musculus", "protocol": "as §1"}, "[12]": {"test_system": "MGH121-res2 cells (C797S/T790M/del19)", "assay": "cells", "format": "cell-based", "details": "Homo sapiens, MGH121, 72 h, read-out: IC50, MGH121-res2", "protocol": "as §2"}, "[13]": {"test_system": "MGH121 parental cells (T790M/del19)", "assay": "cells", "format": "cell-based", "details": "Homo sapiens, MGH121, 72 h, read-out: IC50, MGH121-pt", "protocol": "as §2"}, "[14]": {"test_system": "PC9 T790M cells (T790M/del19)", "assay": "CellTiter-Glo cell viability assay, PC9 T790M", "format": "cell-based", "details": "read-out: IC50, PC9 T790M", "protocol": "as §2"}, "[15]": {"test_system": "PC9-T790M (T790M/del19) xenograft", "assay": "PC9-T790M xenograft", "format": "in vivo, Balb-c nu/nu mice", "details": "osimertinib 50 mg kg^−1, brigatinib 75 mg kg^−1", "experimental": "as §4"}, "[16]": {"test_system": "PC9 triple-mutant cells (C797S/T790M/del19)", "assay": "CellTiter-Glo cell viability assay, PC9 triple mutant", "format": "cell-based", "details": "read-out: IC50, PC9 triple", "protocol": "as §2"}, "EGFR-mutated lung cancer": {"test_system": "EGFR-mutated lung cancer", "details": "patients with EGFR-mutated lung cancer, phase 1/2 trial; cited from earlier work"}, "[17]": {"test_system": "Ba/F3 cells of EGFR-del19", "assay": "Drug sensitivity screening at 100 nM, Ba/F3 EGFR-del19", "format": "cell-based", "details": "Mus musculus, BaF3, 72 h, 100 nM inhibitor, 72 h, DMSO = 100; mean of three independent experiments (Fig. 1a data); read-out: Relative cell viability (ratio to DMSO control), del19", "protocol": "as §1"}, "[18]": {"test_system": "Ba/F3 cells expressing EGFR-T790M/del19", "assay": "CellTiter-Glo cell viability assay, Ba/F3 EGFR-T790M/del19", "format": "cell-based", "details": "Mus musculus", "protocol": "as §2"}}, "note": "Read-outs that look alike come from different tables or passages of the source."}
{"molecule": "COc1cc(N2CCC(N3CCN(C)CC3)CC2)ccc1Nc1ncc(Cl)c(Nc2ccccc2P(C)(C)=O)n1", "note": "[Brigatinib, brigatinib]", "values": [{"measurement": "viability at 0.1 µM", "setting": "[1]", "result": 69.2, "unit": "%"}, {"measurement": "IC50", "setting": "PC9 parent cells (del19)", "result": 133, "unit": "nM"}, {"measurement": "inhibitory activity (IC50) in cell lines without EGFR mutation", "setting": "[2]", "result": "less inhibitory activity to the cell lines without EGFR mutation than afatinib and osimertinib"}, {"measurement": "IC50", "setting": "[3]; Mus musculus, BaF3, 72 h", "result": 207, "unit": "nM"}, {"measurement": "IC50", "setting": "[3]", "result": 133, "unit": "nM"}, {"measurement": "EGFR phosphorylation and downstream signalling, PC9 triple-mutant cells", "setting": "[4]", "result": "inhibited EGFR phosphorylation and its downstream signalling"}, {"measurement": "tumour growth, MGH121-res2 xenograft", "setting": "[5]", "result": "growth inhibition effect"}, {"measurement": "plasma concentration in a steady state", "setting": "[6]; ref 48", "result": "1,694.3 nM"}, {"measurement": "plasma concentration in a steady state", "setting": "[6]; ref 49", "result": "1,447 nM"}, {"measurement": "phosphorylation of EGFR and downstream signalling, Ba/F3 triple-del19", "setting": "[7]", "result": "decreased phosphorylation of EGFR and its downstream signalling pathway in a dose-dependent manner"}, {"measurement": "mode of EGFR kinase inhibition", "setting": "EGFR-C797S/T790M/L858R", "result": "competitively affected the ATP-binding site of the EGFR kinase domain"}, {"measurement": "IC50", "setting": "[8]; BaF3, 72 h, read-out: IC50, Ba/F3 Del19", "result": 43.7, "unit": "nM"}, {"measurement": "IC50", "setting": "[8]; BaF3, read-out: IC50, Ba/F3 del19", "result": 39.4, "unit": "nM"}, {"measurement": "cell surface EGFR level", "setting": "[9]", "result": "no reduction"}, {"measurement": "toxicity, PC9 triple-mutant xenograft-bearing mice", "setting": "[10]; body weight, brigatinib 75 mg kg^−1 daily, with or without cetuximab", "result": "without explicit toxicity"}, {"measurement": "tumour growth, PC9 triple-mutant xenograft", "setting": "[10]; osimertinib 50 mg kg^−1, brigatinib 75 mg kg^−1 once daily oral, cetuximab 1 mg per mouse three times a week, panitumumab 0.5 mg per mouse two times a week", "result": "significant inhibition of the growth of PC9-triple mutant cells"}, {"measurement": "phosphorylation of EGFR and downstream signalling in tumour samples", "setting": "[10]; western blotting of PC9-triple mutant tumours from mice", "result": "actually inhibited"}, {"measurement": "viability at 0.1 µM", "setting": "[11]; BaF3, 72 h, 100 nM inhibitor, 72 h, DMSO = 100, mean of three independent experiments (Fig. 1a data)", "result": 59.2, "unit": "%"}, {"measurement": "inhibition at 0.1 µM", "setting": "[11]; BaF3, at 100 nM, read-out: growth inhibition against EGFR-triple-del19", "result": "~50", "unit": "%"}, {"measurement": "IC50", "setting": "[12]", "result": 592, "unit": "nM"}, {"measurement": "IC50", "setting": "[13]", "result": 155, "unit": "nM"}, {"measurement": "IC50", "setting": "[14]", "result": 244, "unit": "nM"}, {"measurement": "tumour growth, T790M/del19-expressing PC9 xenograft", "setting": "[15]", "result": "successfully suppressed the growth"}, {"measurement": "IC50", "setting": "[16]", "result": 599, "unit": "nM"}, {"measurement": "cases that achieved partial response", "setting": "EGFR-mutated lung cancer", "result": "two of 42 cases"}, {"measurement": "viability at 0.1 µM", "setting": "[17]", "result": 10.3, "unit": "%"}, {"measurement": "IC50", "setting": "[18]; BaF3, 72 h, read-out: IC50, Ba/F3 T790M/del19", "result": 150, "unit": "nM"}, {"measurement": "IC50", "setting": "[18]; BaF3, read-out: IC50, Ba/F3 T790M/del19", "result": 120, "unit": "nM"}]}
